Data taken from patent US20130115174A1, “TRANSMUCOSAL COMPOSITION CONTAINING ANTHOCYANINS FOR ALLEVIATING A VISUAL DISCOMFORT” (priority 2010, published 2013).
Read-outs that look alike come from different tables or passages of the source.

Columns and labels:
[1] = Digestive versus sublingual absorption, plasmatic level 1 hour after administration; assay type: in vivo, Rats; conditions: for concentration at 1 h: rat, plasma, read-out: Plasmatic lutein concentration
Method: Taurin and Lutein plasmatic level are evaluated using HPLC process as described Lallemand F. et al, 2004 and Shanmugam S, et al, 2011, respectively.

[2] = parameters: species or system Rats (OFA, Sprague-Dawlay); conditions: rat, in vivo
Method: The stick gum administered to Rats contains 5 mg of vegetal extract titrated at 25% of anthocyanosides (i.e. 1.250 μg of anthocyanosides).
The Sprague Dawley rat (10 Males) used extensively in medical research weighing 450-520 g were received and placed separately in cage in room temperature controlled (22° C.). […] Rats were maintained in dark periode condition and fed a diet (755 g/kg wheat starch, 150 g/kg casein, 50 g/kg peanut oil, 35 g/kg AlN-93M mineral mixture, 10 g/kg AlN-76A vitamin mixture) during 2 weeks (Felgines, C. et al. J. Nutr 2002).
The stick gum was deposited at the buccal mucosa area.
Peripheral blood was collected 1 hour post-administration, centrifuged and plasma was acidified through formic acid addition. After acidification, plasma samples were conserved at −80° C. and analyzed by LC-MS/MS (Liquid Chromatography—Mass Spectrometer/Mass Spectrometer).
In parallel, epithelium and conjunctive tissues were collected 45 minutes post-administration, placed in formic acid and eventually conserved at −80° C. Before LC-MS/MS analyze, tissues were washed in PBS (phosphate buffered saline) and homogenized on ice. Protein concentrations were determined by Lowry method. To facilitate tissues preparation, samples were homogenized and treated with 2.5% trypsin and 2% collagenase during 1.5 h at 37° C., and then acidified with formic acid. […]

Row | absorption, lingual way as compared to the digestive way ([1]; Example 5, rats) | concentration at 1 h ([1]; oral, Digestive, 6 mg/kg) | concentration at 1 h ([1]; oral, Digestive, 12 mg/kg) | concentration at 1 h ([1]; other: sublingual, Sublingual, 6 mg/kg) | concentration at 1 h ([1]; other: sublingual, Sublingual, 12 mg/kg) | absorption in the tissues and in the plasma [2] | Compound
1 | more effective | 34 ng/mL | 32 ng/mL | 120 ng/mL | 160 ng/mL |  | CC1=C[C@H](O)CC(C)(C)[C@H]1/C=C/C(C)=C/C=C/C(C)=C/C=C/C=C(C)/C=C/C=C(C)/C=C/C1=C(C)C[C@@H](O)CC1(C)C [lutein, Lutein]
2 |  |  |  |  |  | significantly absorbed | Anthocyanin
